Laboratory results published in publication PMC5415745, “Drug-transporter mediated interactions between anthelminthic and antiretroviral drugs across the Caco-2 cell monolayers” (BMC Pharmacology & Toxicology, 2017).
Values joined by “and” are separate entries in the source; they are usually repeats but may differ in a detail not shown here. Equal entries are not always repeated.

What was measured:
[1] = Bidirectional (AP→BL, BL→AP) drug transport across Caco-2 cell monolayers in transwells: cumulative transport, Papp, efflux ratio; HPLC or radiolabeled assay; details: human
Description: (§1) The monolayers used were of between passage 20 and 65 after 15 days of growth. Each experiment was performed in duplicate using two six well-transwell culture plates. The cells were trypsinized as described earlier, and after centrifugation the pellet re-suspended in fresh DMEM (+15%), and the cells counted using a cell counter. A volume of DMEM was added enough to give a cell count of 2 × 10^6 cells per ml, and cells were seeded on the transwell culture plates at a density of 2 × 10^4 cells/cm^2 (~ 100,000 cells per well, since insert membrane growth area = 4.67 cm^2). The plates were then incubated at 37°C and 10% CO2 in a humidified chamber and the media changed every 2-3 days, by aspirating using a suction pump and replacing with an equal volume of DMEM. Transport experiments were conducted 15 to 20 days after seeding. The TEER across the cell monolayers was monitored using a Millicell-ERS in order to assess cell monolayer integrity and the monolayers considered appropriate for the experiment when the TEER values were typically above 500 cm^2 [49, 70].
(§2) Prior to transport studies, each monolayer was washed and equilibrated with the transport medium (DMEM without FBS). The medium was removed from all AP and BL compartments of the transwells and replaced with 2 ml of the transport medium (DMEM alone), to both compartments and equilibrated for 1 h (37°C, 10% CO2 incubator), after which the TEER was re-assessed and labeled. The medium was then removed from both compartments and replaced with an equal volume of pre-warmed medium containing the compound of interest at the appropriate concentration. For the AP → BL transport, 2 ml of medium containing the desired drug was placed in the AP chamber and 2 ml of the medium alone in the BL chamber, whereas 2 ml of medium containing the drug was placed in the BL and 2 ml of medium on the AP chamber for the BL → AP transport [71]. The effect of the second drug was then assessed by adding the medium containing the original drug and the drug under study to the AP side for AP → BL transport with the medium containing the original drug alone in the BL chamber, and vice-versa for the BL → AP transport. Transport in each direction was done in triplicate. The transwell plates were then incubated (37°C, 10% CO2 incubator), and 100μl of the samples from the AP and BL compartments were taken at 60, 120, 180 and 240 min and quantified either by HPLC method described earlier [45], or by the use of a liquid scintillating counter depending on the drug under study. The HPLC method involved liquid - liquid extraction followed by ultra-high performance liquid chromatography using a Hypurity C18 column and ultraviolet detection set at a wavelength of 215 nm. The mobile phase consisted of ammonium formate, acetonitrile and methanol (57:38:5 v/v). Separation was facilitated via isocratic elution at a flow rate of 1.5 ml/min. For HPLC assays, the concentration used for each drug was 20μg/ml. The concentrations that offered the best detection were selected for radiolabeled assay. […] The integrity of the CCM during the experiment was monitored by measuring the TEER at the beginning (0 min) and the end of the experiment (240min).
(§3) The results were expressed as apparent permeability coefficient (Papp, unit: cms^-1), the amount of compound transported per second. Papp values were calculated for both AP to BL (PappAtoB), and BL to AP (PappBtoA) movement of the compound. Papp was calculated using the following equation [52, 72]: • Papp (cm/s) = (dQ/dt) x (1/(ACO) • dQ/dt = Steady-state flux (dpm s^-1 or μmol s^-1) • A = Surface area of the filter (cm^2) • CO = Initial concentration in the donor chamber (dpm litre ^-1 or μM)
(§4) The quotient of secretory permeability and absorptive permeability (PappBL-AP/PappAP-BL) constitutes the efflux ratio, while the reverse (PappAP-BL/PappBL-AP) is the uptake ratio [71].

[2] = test system: Caco-2 cell monolayers; test: as above; details: for Apical to basal transport (cumulative, receiver), Mean / Basal to apical transport (cumulative, receiver), Mean: mean n=3
Description: as §1, §2, §3, §4

[3] = 120 min, individual samples 1-3
[4] = 180 min, individual samples 1-3
[5] = 240 min, individual samples 1-3
[6] = mean (n=3) after 60 min, drug A alone, or label 'A + B' = transport of A in presence of interacting drug B, concentrations per Table 1
[7] = samples after 60min, individual samples 1-3

Papp A→B at 60 min ([1]; Caco-2, Papp AP → BL, mean (n=3) after 60 min, drug A alone, or label 'A + B' = transport of A in presence of interacting drug B, concentrations per Table 1): 16.5 ×10⁻⁶ cm/s
Papp B→A at 60 min ([1]; Caco-2, Papp BL → AP, mean (n=3) after 60 min, drug A alone, or label 'A + B' = transport of A in presence of interacting drug B, concentrations per Table 1): 10.8 ×10⁻⁶ cm/s
Papp A→B at 60 min ([1]; Caco-2, PappAB, Papp, samples after 60min, individual samples 1-3): 20 ×10⁻⁶ cm/s
Papp B→A at 60 min ([1]; Caco-2, PappBA, Papp, samples after 60min, individual samples 1-3): 13.4 ×10⁻⁶ cm/s
Apical to basal transport (cumulative, receiver) ([2]; 60 min, individual samples 1-3): 0.31 pmoles (2×) and 0.32 pmoles
Basal to apical transport (cumulative, receiver) ([2]; 60 min, individual samples 1-3): 0.30 pmoles (2×) and 0.25 pmoles
Apical to basal transport (cumulative, receiver), Mean ([2]; 60 min): 0.32 pmol
Basal to apical transport (cumulative, receiver), Mean ([2]; 60 min): 0.28 pmol
Apical to basal transport (cumulative, receiver), Mean ([2]; 120 min): 0.56 pmol
Basal to apical transport (cumulative, receiver), Mean ([2]; 120 min): 0.53 pmol
Apical to basal transport (cumulative, receiver), Mean ([2]; 180 min): 0.69 pmol
Basal to apical transport (cumulative, receiver), Mean ([2]; 180 min): 0.68 pmol
Apical to basal transport (cumulative, receiver), Mean ([2]; 240 min): 0.82 pmol
Basal to apical transport (cumulative, receiver), Mean ([2]; 240 min): 0.83 pmol
Effect on the transport of PZQ ([2]; labelled drug is the interacting drug): did not affect
Papp AP → BL [2, 6]: 16.5 ×10⁻⁶ cm/s
Papp BL → AP [2, 6]: 10.8 ×10⁻⁶ cm/s
PappAB Papp [2, 7]: 15.9 ×10⁻⁶ cm/s and 13.5 ×10⁻⁶ cm/s
PappBA Papp [2, 7]: 9.29 ×10⁻⁶ cm/s and 9.67 ×10⁻⁶ cm/s
SMILES: O=C1Nc2ccc(Cl)cc2[C@@](C#CC2CC2)(C(F)(F)F)O1 [EFV, efavirenz]
Apical to basal transport (cumulative, receiver) [2, 3]: 0.61 pmol and 0.54 pmol and 0.55 pmol
Basal to apical transport (cumulative, receiver) [2, 3]: 0.53 pmol and 0.50 pmol and 0.57 pmol
Apical to basal transport (cumulative, receiver) [2, 4]: 0.67 pmol and 0.70 pmol and 0.71 pmol
Basal to apical transport (cumulative, receiver) [2, 4]: 0.69 pmol and 0.65 pmol and 0.70 pmol
Apical to basal transport (cumulative, receiver) [2, 5]: 0.78 pmol and 0.86 pmol and 0.82 pmol
Basal to apical transport (cumulative, receiver) [2, 5]: 0.86 pmol and 0.78 pmol and 0.84 pmol
